Key:
HMG-CoA reductase = molecular target: T1, HMG-CoA reductase (Rattus norvegicus, UniProt P51639); test: Inhibition of HMG-CoA reductase activity in solubilized enzyme preparations from rat liver microsomes; format: biochemical; settings: sodium salts of the dihydroxycarboxylic acids; mean of 3 parallel samples; read-out: IC50 (molar concentration necessary for a 50% inhibition)
T1 construct: solubilized enzyme preparations from liver microsomes of rats; from tissue; host or cells: rat liver microsomes (cholestyramine-induced rats), solubilized
T1 sequence (P51639 1-887): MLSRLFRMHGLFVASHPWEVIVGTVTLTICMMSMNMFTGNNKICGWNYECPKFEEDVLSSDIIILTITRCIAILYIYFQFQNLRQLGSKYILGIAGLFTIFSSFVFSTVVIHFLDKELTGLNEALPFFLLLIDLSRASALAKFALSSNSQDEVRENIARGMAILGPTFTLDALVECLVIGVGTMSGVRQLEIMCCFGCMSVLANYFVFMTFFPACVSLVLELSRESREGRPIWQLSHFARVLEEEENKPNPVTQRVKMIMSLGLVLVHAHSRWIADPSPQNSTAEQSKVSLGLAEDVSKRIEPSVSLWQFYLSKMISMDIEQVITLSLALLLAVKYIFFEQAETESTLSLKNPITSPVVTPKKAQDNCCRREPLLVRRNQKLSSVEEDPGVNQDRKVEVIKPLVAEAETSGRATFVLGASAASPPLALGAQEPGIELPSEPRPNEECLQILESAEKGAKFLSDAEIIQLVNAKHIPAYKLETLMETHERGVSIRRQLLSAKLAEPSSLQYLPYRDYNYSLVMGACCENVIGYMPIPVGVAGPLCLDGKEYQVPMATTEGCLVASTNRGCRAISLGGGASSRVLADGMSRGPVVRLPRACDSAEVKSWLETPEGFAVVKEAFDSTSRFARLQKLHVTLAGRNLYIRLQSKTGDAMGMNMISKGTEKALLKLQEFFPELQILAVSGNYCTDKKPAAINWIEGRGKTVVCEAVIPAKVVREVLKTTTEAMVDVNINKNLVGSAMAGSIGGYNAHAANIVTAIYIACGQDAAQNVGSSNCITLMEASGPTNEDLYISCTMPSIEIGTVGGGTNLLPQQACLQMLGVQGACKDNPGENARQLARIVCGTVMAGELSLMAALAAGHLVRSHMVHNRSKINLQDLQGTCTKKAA
Description: 1) Inhibition of HKG-CoA reductase activity in solubilized enzyme preparations from rat liver microsomes
HMG-CoA reductase activity was measured on solubilized enzyme preparations from liver microsomes of rats which had been induced by conversion into the day/night rhythm using cholestyramine (®Cuemid). (S,R)^14 C-HMG-CoA was used as a substrate, and the concentration of NADPH was maintained during the incubation by a regenerating system. The separation of ^14 C-mevalonate from substrate and other products (for example ^14 C-HMG) was carried out by column elution, the elution profile of each individual sample being determined. The regular addition of ^3 H-mevalonate was avoided as the determination gives the data relative to the inhibitory action. The enzyme-free control, the enzyme-containing normal mixture (=100%) and those containing preparation additives were in each case treated together in one series of experiments. The sodium salts of the dihydroxycarboxylic acids of the formula II were always employed as the preparation in this test. Each individual value was formed as the mean value of 3 parallel samples. The significance of the mean value differences between preparation-free and preparation-containing samples was evaluated by the t-test.

HEP G2 cells = test: Inhibition of cholesterol biosynthesis in cell cultures (HEP G2 cells), incorporation of 14C-sodium acetate in cholesterol; format: cell-based; settings: for IC50: Homo sapiens, HepG2, sodium salts, test compounds corrected by deviation of mevinolin sodium from its mean value, read-out: IC50 (concentration necessary for a 50% inhibition); for Relative potency in %: mevinolin sodium = 100, from IC50
Description: 2) Inhibition of cholesterol biosynthesis in cell cultures (EEP G2 cells)
Determination of the inhibition of the incorporation of ^14 C-sodium acetate in cholesterol
Monolayers of HEP G2 cells in lipoprotein-free medium were preincubated with various concentrations of the sodium salts of the dihydroxycarboxylic acids of the formula II for 1 hour. After adding ^14 C-labeled sodium acetate, the incubation was continued for 3 hours. Tritium-labeled cholesterol was added as an internal standard and an aliquot of the cells was subjected to alkaline hydrolysis. The lipids were extracted using chloroform/methanol 2: 1. After adding carrier cholesterol, the lipid mixture was preparatively separated on TLC plates using chloroform/acetone 9: 1. The cholesterol zone was made visible by staining with iodine vapor, additionally detected using a TLC radio scanner and then scraped off. The amount of ^14 C-cholesterol formed was determined scintigraphically and related to mg of cell protein. The same procedure was carried out with cells from the Bame culture without preincubation with a test compound (so-called "solvent control"). The potency of the test compounds was determined by comparison of the biosynthesized ^14 C-cholesterol in test runs and in "solvent control".

[1] = system: microsomal lipid peroxidation; test: Inhibition of microsomal lipid peroxidation (in vitro); format: biochemical; settings: for IC50: microsomes, read-out: IC50 (50% inhibition of lipid peroxidation)
Description: 5) Inhibition of microsomal lipid peroxidation (in vitro)
The inhibition of lipid peroxidation was measured under the experimental conditions described by H. Wafers and H. Sies, Eur. J. Biochem. 174, 353-357 (1988). The microsomes were obtained according to the literature cited therein. IC50 denotes the concentration of the test compound in moles per liter which causes a 50% inhibition of lipid peroxidation.

serum lipoproteins = test: Action on serum lipoproteins and other metabolic parameters of male rats in the subchronic test; format: in vivo; settings: rat; for Body weight, % changes in the mean value relative to starting / Food consumption, % changes in the mean value relative to control / Glycerol VLDL, % change compared to control / Liver weight, % changes in the mean value relative to control / Protein LDL, % change compared to control / Protein VLDL, % change compared to control / Total cholesterol HDL, % change compared to control / Total cholesterol LDL, % change compared to control / Total cholesterol VLDL, % change compared to control: 7 administrations; for Cholesterol HDL/LDL: control standardization to 1.00
Description: 3) Action on serum lipoproteins and other metabolic parameters of male rats in the subchronic test
Groups of male rats of the strain HOE: WISKf (SPF 71) having a starting weight of above 180 g received the test preparations daily in the morning (sodium salts of the dihydroxycarboxylic acids of the formula II) in polyethylene glycol 400 by stomach tube; the respective control group received only the vehicle. The last (7th) administration was carried out 24 hours before taking blood and sacrificing. There was free access to food and water during the experiment. 24 hours before taking blood, which wall carried out retroorbitally under slight ether anesthesia before and after the treatment period (i.e. on the 1st and 8th day), the food was withdrawn. Total cholesterol was determined in the serum of each individual animal [CHODPAP high performance method of Boehringer Mannheim], and, as a measure of the triglycerides, total glycerol was also determined analytically from the serum pool of all the animals of one group [GPO-PAP high performance method, Boehringer Mannheim].
Immediately after taking blood, the animals were sacrificed by dislocation of the spine, and the relative liver weight, the change in body weight and the food consumption were determined.
For the analysis of the serum lipoproteins, the serum of all the rats of one group was pooled. The serum lipoproteins were separated using the preparative ultracentrifuge.
The following conditions were used for the separation of the fractions VLDL, LDL and HDL:
The determination of the protein was carried out by the method of Lowry et al. [LOWRY O. H., ROSEBOROUGH, N.J., PARR, A. L. and RANDELL, R. J.: J. Biol. Chem. 193, 265 (1951)].

LDL = test: Inhibition of Cu2+-catalyzed LDL oxidation in vitro; format: biochemical, porcine; settings: 5 μM Cu2+, 2 hours at 37° C.; for IC50: fluorescence 430 nm, read-out: IC50 (50% inhibition of LDL oxidation)
Description: 6) Inhibition of Cu^2+ -catalyzed LDL oxidation in vitro LDL was isolated from porcine plasma which contained EDTA (1 mg/ml) by ultracentrifugation in salt solutions of NaCl/NaBr between the densities 1.019 and 1.063 g/ml (cf. R. J. Havel et al., J. Clin. Invest. 43, 1345 (1955)). LDL was then dialyzed against phosphate-buffered saline (160 mM NaCl, 10 mM NaH2 PO4), pH 7.4 and stored under nitrogen at 4° C. Before the oxidation process, the LDL fractions were diluted to a final protein concentration of 0.1 mg/ml using phosphate-buffered saline and 2.5 ml aliquot parts were pre-incubated under nitrogen with the test compounds (25 μl of ethanolic solution) for 1 hour at 37° C. (cf. McLean et al., Biochemistry 1989, 28, 321). For the Cu^2+ -catalyzed oxidation of LDL, 12.5 μl of a 1 mM CuSO4 solution were added to each sample, a 5 μM Cu^2+ concentration resulting. The incubation was carried out for 2 hours at 37° C. and in an air atmosphere. The fluorescence intensity was measured at 430 nm (excitation wavelength 365 nm) (cf. Steinbrecher, U. P., J. Biol. Chem. 1987, 262, 3603). […] In addition, the inhibition using a 10^-5 N concentration of the test compound is indicated in %.

[2] = 100 mg/kg daily by stomach tube

Structure (SMILES) | IC50 (HMG-CoA reductase) [nM] | IC50 (HEP G2 cells) [nM] | Relative potency in % (HEP G2 cells) [%] | Inhibition at 10^-5 mol/l [1] [%] | IC50 [1] [nM] | IC50 (LDL) [nM] | other results
O=C(O)C[C@H](O)C[C@H](O)COc1c(-c2ccc(F)cc2)cc(Sc2ccc(F)cc2)cc1C1CC1 [Example 2] | 2 | 2.2 | 2273 | < 10 |  |  | 
CC(C)c1cc(Sc2ccccc2)cc(-c2ccc(F)cc2)c1OC[C@@H](O)C[C@@H](O)CC(=O)O [Example 4] | 8 | 8 | 625 |  |  |  | 
CC(C)Sc1cc(-c2ccc(F)cc2)c(OC[C@@H](O)C[C@@H](O)CC(=O)O)c(C(C)C)c1 [Example 5, Sodium 3(R),S(S)-dihydroxy-6-[(2-p-fluorophenyl-4-isopropylthio-6-isopropyl)phenoxy]hexanoate] | 8 | 9.2 | 543 | 0 |  |  | 
CC(C)c1cc(SC(C)(C)Sc2cc(-c3ccc(F)cc3)c(OC[C@@H](O)C[C@@H](O)CC(=O)O)c(C(C)C)c2)cc(-c2ccc(F)cc2)c1O [Example 6, Sodium 3(R),5(S)-dihydroxy-6-(2-isopropyl-4-[(3-isopropyl-4-sodio-oxy-5-p-fluorophenyl-l-phenylthio)-2-propyl-2-thio]-6-p-fluorophenylphenoxy)hexanoate] | 3 | 1700 | 3 | 98 | 2700 |  | Body weight, % changes in the mean value relative to starting (serum lipoproteins; 30 mg/kg daily by stomach tube): +5%; Food consumption, % changes in the mean value relative to control (serum lipoproteins; 30 mg/kg daily by stomach tube): -1%; Glycerol VLDL, % change compared to control (serum lipoproteins; 30 mg/kg daily by stomach tube): +8%; Liver weight, % changes in the mean value relative to control (serum lipoproteins; 30 mg/kg daily by stomach tube): +3%; Protein LDL, % change compared to control (serum lipoproteins; 30 mg/kg daily by stomach tube): -24%; Protein VLDL, % change compared to control (serum lipoproteins; 30 mg/kg daily by stomach tube): -4%; Total cholesterol HDL, % change compared to control (serum lipoproteins; 30 mg/kg daily by stomach tube): +13%; Total cholesterol LDL, % change compared to control (serum lipoproteins; 30 mg/kg daily by stomach tube): -26%; Total cholesterol VLDL, % change compared to control (serum lipoproteins; 30 mg/kg daily by stomach tube): +12%; Cholesterol HDL/LDL (serum lipoproteins; 30 mg/kg daily): 1.27; Body weight, % changes in the mean value relative to starting (serum lipoproteins; [2]): +5%; Food consumption, % changes in the mean value relative to control (serum lipoproteins; [2]): -1%; Glycerol VLDL, % change compared to control (serum lipoproteins; [2]): -8%; Liver weight, % changes in the mean value relative to control (serum lipoproteins; [2]): +1%; Protein LDL, % change compared to control (serum lipoproteins; [2]): +3%; Protein VLDL, % change compared to control (serum lipoproteins; [2]): -2%; Total cholesterol HDL, % change compared to control (serum lipoproteins; [2]): -3%; Total cholesterol LDL, % change compared to control (serum lipoproteins; [2]): -16%; Total cholesterol VLDL, % change compared to control (serum lipoproteins; [2]): +13%; Cholesterol HDL/LDL (serum lipoproteins; 100 mg/kg daily): 1.15
CC(C)c1cc(SC(C)(C)Sc2cc(-c3ccc(F)cc3)c(OC[C@@H](O)C[C@@H](O)CC(=O)O)c(C(C)C)c2)cc(-c2ccc(F)cc2)c1OC[C@@H](O)C[C@@H](O)CC(=O)O [Example 7, 4,4-(Isopropylidenedithio)-bis-<{1-[(2S,4R)-dihydroxy-5-sodiocarboxy]pentoxy-2-isopropyl-6-p-fluorophenyl}benzene>] | 1 | 920 | 5 | < 10 |  |  | Body weight, % changes in the mean value relative to starting (serum lipoproteins; [2]): +5%; Glycerol VLDL, % change compared to control (serum lipoproteins; [2]): -3%; Liver weight, % changes in the mean value relative to control (serum lipoproteins; [2]): -1%; Protein LDL, % change compared to control (serum lipoproteins; [2]): -8%; Protein VLDL, % change compared to control (serum lipoproteins; [2]): -15%; Total cholesterol HDL, % change compared to control (serum lipoproteins; [2]): +9%; Total cholesterol LDL, % change compared to control (serum lipoproteins; [2]): -52%; Total cholesterol VLDL, % change compared to control (serum lipoproteins; [2]): -23%; Cholesterol HDL/LDL (serum lipoproteins; 100 mg/kg daily): 2.25
CC(C)c1c(O)c(C(C)C)c(C(C)C)c(OC[C@@H](O)C[C@@H](O)CC(=O)O)c1-c1ccc(F)cc1 [Example 8] | 2 | 4 | 1250 | 27 |  | 1100 | 
CC(C)c1cc(Sc2ccc(F)cc2)cc(-c2ccc(F)cc2)c1OC[C@@H]1C[C@@H](O)CC(=O)O1 [Example 10, 4(R)-Hydroxy-6(S)-[(2-p-fluorophenyl-4-p-fluorophenylthio-6-isopropyl)phenoxymethyl]-3,4,5,6-tetrahydro-2H-pyran-2-one] |  |  |  |  |  | > 10000 | Inhibition at 10^-5 M (LDL; 10^-5 M): 23%
CC(C)c1cc(Sc2ccc(F)cc2)cc(-c2ccc(F)cc2)c1O [Process Example 6, 2-(p-Fluorophenyl)-4-(p-fluorophenylthio)-6-isopropylphenol] |  |  |  | 95 | 3000 | 1000 | 
CC(=O)Oc1c(C(C)C)c(-c2ccc(F)cc2)c(O)c(C(C)C)c1C(C)C [Process Example 25, 2,3,5-Triisopropyl-4-acetoxy-6-(p-fluorophenyl)phenol] |  |  |  | 83 | 4800 | 150 | 

Source: US5294724A, “4-hydroxytetrahydropyran-2-ones and the corresponding dihydroxycarboxylic acid derivatives, salts and esters and a process for their preparation” (priority 1989, dated 1994)
